Measurements published in paper PMC3480437, “Abscisic Acid Signaling: Thermal Stability Shift Assays as Tool to Analyze Hormone Perception and Signal Transduction” (PLoS ONE, 2012).

Assays:
Assay type in all cases: binding
[1] = target: T1, PYL1/HAB1 coreceptor complex (Arabidopsis thaliana, UniProt Q8VZS8); experiment: radioligand competition (SPA, 3H-ABA); details: 450 nM 3H-ABA, 10 µM HAB1, MOPS pH 7.4, room temperature; curve only in figure
T1 construct: H6GST-PYL1 on SPA beads plus HAB1 (172-511), both from E. coli; 1:1 complex; with Protein phosphatase 2C 16
T1 sequence (Q8VZS8 36-211): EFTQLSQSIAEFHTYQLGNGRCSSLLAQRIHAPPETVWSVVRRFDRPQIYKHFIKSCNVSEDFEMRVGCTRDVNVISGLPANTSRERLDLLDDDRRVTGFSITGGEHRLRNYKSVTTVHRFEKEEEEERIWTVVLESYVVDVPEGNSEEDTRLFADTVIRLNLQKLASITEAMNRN
T1 sequence (Q9CAJ0 172-511 partner): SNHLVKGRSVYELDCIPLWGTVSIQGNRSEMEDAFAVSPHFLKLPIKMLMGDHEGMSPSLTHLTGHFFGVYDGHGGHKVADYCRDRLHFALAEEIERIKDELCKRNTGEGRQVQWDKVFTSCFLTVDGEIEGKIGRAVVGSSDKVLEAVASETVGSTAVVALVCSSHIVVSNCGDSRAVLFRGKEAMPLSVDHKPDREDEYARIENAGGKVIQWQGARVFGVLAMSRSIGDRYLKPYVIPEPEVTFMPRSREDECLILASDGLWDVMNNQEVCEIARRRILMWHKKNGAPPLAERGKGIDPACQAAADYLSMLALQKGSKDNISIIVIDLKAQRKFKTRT

PYL2 = target: T2, PYL2 (Arabidopsis thaliana, UniProt O80992); experiment: thermal shift (SYPRO Orange); details: 500 µM pyrabactin, no PP2C; apo Tm not derivable
T2 construct: residues 14-188, recombinant from E. coli, receptor alone without PP2C; dimeric
T2 sequence (O80992 14-188): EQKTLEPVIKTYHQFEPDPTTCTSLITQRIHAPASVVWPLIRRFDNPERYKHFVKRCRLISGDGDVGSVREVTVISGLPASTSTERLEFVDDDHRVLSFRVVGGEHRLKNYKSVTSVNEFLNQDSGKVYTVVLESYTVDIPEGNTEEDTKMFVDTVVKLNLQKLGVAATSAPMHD

SnRK2.6 = target: T3, SnRK2.6 (Arabidopsis thaliana, UniProt Q940H6); experiment: thermal shift (SYPRO Orange); details: 50 µM compound, 5 µM kinase
T3 construct: gene SRK2E; full length, recombinant from E. coli; untagged in TSA, H6GST fusion in kinase assay
T3 sequence (Q940H6 1-362): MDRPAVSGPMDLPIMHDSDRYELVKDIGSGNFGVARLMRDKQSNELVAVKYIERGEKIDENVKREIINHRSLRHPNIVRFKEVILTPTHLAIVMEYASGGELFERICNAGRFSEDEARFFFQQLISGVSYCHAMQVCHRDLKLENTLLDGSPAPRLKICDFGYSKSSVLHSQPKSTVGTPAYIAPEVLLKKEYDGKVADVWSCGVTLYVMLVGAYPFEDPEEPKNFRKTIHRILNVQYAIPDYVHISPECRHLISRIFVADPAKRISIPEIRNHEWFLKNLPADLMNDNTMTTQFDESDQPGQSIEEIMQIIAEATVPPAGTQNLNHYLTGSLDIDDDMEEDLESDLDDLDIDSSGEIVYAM

SnRK2.3 = target: T4, SnRK2.3 (Arabidopsis thaliana, UniProt Q39193); experiment: thermal shift (SYPRO Orange); details: 50 µM compound, 5 µM kinase
T4 construct: gene SRK2I; full length, recombinant from E. coli; untagged and as N-terminal MBP fusion (NAAAEF linker)
T4 sequence (Q39193 1-361): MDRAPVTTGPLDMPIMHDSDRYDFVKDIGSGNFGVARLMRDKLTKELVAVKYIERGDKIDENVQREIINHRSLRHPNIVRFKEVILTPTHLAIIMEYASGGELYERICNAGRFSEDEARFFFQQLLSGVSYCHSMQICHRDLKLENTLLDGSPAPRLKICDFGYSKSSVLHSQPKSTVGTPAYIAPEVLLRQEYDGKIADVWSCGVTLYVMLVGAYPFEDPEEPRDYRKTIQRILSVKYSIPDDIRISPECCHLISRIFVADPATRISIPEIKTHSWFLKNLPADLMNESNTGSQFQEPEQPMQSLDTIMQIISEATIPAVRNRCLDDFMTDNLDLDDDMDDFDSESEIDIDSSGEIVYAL

SnRK2.2 = target: T5, SnRK2.2 (Arabidopsis thaliana, UniProt Q39192); experiment: thermal shift (SYPRO Orange); details: 50 µM compound
T5 construct: gene SRK2D
T5 sequence (Q39192 1-362): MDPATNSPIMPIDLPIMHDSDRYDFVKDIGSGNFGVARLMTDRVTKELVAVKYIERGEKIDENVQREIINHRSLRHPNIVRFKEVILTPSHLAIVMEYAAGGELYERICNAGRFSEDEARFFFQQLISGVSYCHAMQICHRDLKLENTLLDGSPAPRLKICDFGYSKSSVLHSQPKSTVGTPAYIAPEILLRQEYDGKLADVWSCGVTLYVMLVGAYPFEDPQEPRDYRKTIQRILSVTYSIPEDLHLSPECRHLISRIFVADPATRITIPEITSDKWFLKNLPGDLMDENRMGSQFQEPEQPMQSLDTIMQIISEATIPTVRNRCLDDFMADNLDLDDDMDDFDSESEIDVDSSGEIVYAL

Structure (SMILES) | radioligand competition (SPA, 3H-ABA) [1] | thermal shift (SYPRO Orange) (PYL2) | dTm (SnRK2.6) [°C] | dTm (SnRK2.3) [°C] | dTm (SnRK2.2) [°C]
O=S(=O)(NCc1ccccn1)c1ccc(Br)c2ccccc12 [pyrabactin] | Competition of the interactions between ^3H-ABA and the PYL1/HAB1 (A) | suggesting that pyrabactin directly binds PYL2, but with an affinity that is lower | – | – | –
O=C1NC(=O)c2c1c(-c1ccccc1Cl)cc1[nH]c3ccc(O)cc3c21 [Wee1 inhibitor] | – | – | > 3 | > 3 | > 3
